Reference: patent publication US10131652B2, “Pyrimidinyloxy benzene derivatives as herbicides” (E. I. DU PONT DE NEMOURS AND COMPANY, priority 2014, dated 2018)

Experiments:
Test in all cases: Test D pre-/postemergence plant response
Format in all cases: in vivo
[1] = test system: Italian ryegrass (Lolium multiflorum)
Method in brief: (§1)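 Pre-/post-emergence greenhouse test. Pre: seeded loam+sand, sprayed same day. Post: 1–4 leaf plants (2–18 cm), peat/vermiculite mix. Formulation: non-phytotoxic solvent + surfactant. Scored visually d13–15, 0–100 vs control.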

[2] = test system: barnyardgrass (Echinochloa crus-galli)
Method in brief: as §1

[3] = test system: blackgrass (Alopecurus myosuroides)
Method in brief: as §1

corn (Zea mays) = test system: corn (Zea mays)
Method in brief: as §1

[4] = test system: galium (catchweed bedstraw, Galium aparine)
Method in brief: as §1

[5] = test system: giant foxtail (Setaria faberii)
Method in brief: as §1

[6] = test system: johnsongrass (Sorghum halepense)
Method in brief: as §1

[7] = test system: lambsquarters (Chenopodium album)
Method in brief: as §1

[8] = test system: large (Lg) crabgrass (Digitaria sanguinalis)
Method in brief: as §1

[9] = test system: morningglory (Ipomoea coccinea)
Method in brief: as §1

[10] = test system: oilseed rape (Brassica napus)
Method in brief: as §1

[11] = test system: pigweed (Amaranthus retroflexus)
Method in brief: as §1

[12] = test system: ragweed (common ragweed, Ambrosia elatior)
Method in brief: as §1

soybean (Glycine max) = test system: soybean (Glycine max)
Method in brief: as §1

[13] = test system: velvetleaf (Abutilon theophrasti)
Method in brief: as §1

[14] = test system: waterhemp (common waterhemp, Amaranthus rudis)
Method in brief: as §1

[15] = test system: winter wheat (Triticum aestivum)
Method in brief: as §1

[16] = test system: yellow nutsedge (Cyperus esculentus)
Method in brief: as §1

[17] = Postemergence, 16 g ai/ha, scale 0 to 100 (0 no effect, 100 complete control)
[18] = Postemergence, 31 g ai/ha, scale 0 to 100 (0 no effect, 100 complete control)
[19] = Postemergence, 62 g ai/ha, scale 0 to 100, 0 no effect, 100 complete control
[20] = Postemergence, 125 g ai/ha, scale 0 to 100, 0 no effect, 100 complete control
[21] = Preemergence, 16 g ai/ha, scale 0 to 100 (0 no effect, 100 complete control)
[22] = Preemergence, 31 g ai/ha, scale 0 to 100 (0 no effect, 100 complete control)
[23] = Preemergence, 62 g ai/ha, scale 0 to 100 (0 no effect, 100 complete control)

Fc1ccc(Oc2ncc(Cl)cn2)c(-c2cc(C(F)F)on2)c1F [Compound 113]
Ryegrass, Italian plant response rating [1, 17]: 5
Ryegrass, Italian plant response rating [1, 18]: 5
Plant response rating, Ryegrass, Italian [1, 19]: 5
Plant response rating, Ryegrass, Italian [1, 20]: 5
Plant response rating (scale 0 to 100), Ryegrass, Italian ([1]; Preemergence, 125 g ai/ha): 70
Plant response rating, Ryegrass, Italian [1, 21]: 5
Plant response rating, Ryegrass, Italian [1, 22]: 10
Plant response rating, Ryegrass, Italian [1, 23]: 60
Barnyardgrass plant response rating [2, 17]: 10
Barnyardgrass plant response rating [2, 18]: 15
Plant response rating, Barnyardgrass [2, 19]: 20
Plant response rating, Barnyardgrass [2, 20]: 25
Plant response rating (scale 0 to 100), Barnyardgrass ([2]; Preemergence, 62 g ai/ha): 98
Plant response rating (scale 0 to 100), Barnyardgrass ([2]; Preemergence, 125 g ai/ha): 100
Plant response rating, Barnyardgrass [2, 21]: 30
Plant response rating, Barnyardgrass [2, 22]: 95
Blackgrass plant response rating [3, 17]: 5
Blackgrass plant response rating [3, 18]: 15
Plant response rating, Blackgrass [3, 19]: 10
Plant response rating, Blackgrass [3, 20]: 40
Plant response rating (scale 0 to 100), Blackgrass ([3]; Preemergence, 125 g ai/ha): 80
Plant response rating, Blackgrass [3, 21]: 10
Plant response rating, Blackgrass [3, 22]: 40
Plant response rating, Blackgrass [3, 23]: 70
Corn plant response rating (corn (Zea mays); [17]): 5
Corn plant response rating (corn (Zea mays); [18]): 10
Plant response rating, Corn (corn (Zea mays); [19]): 20
Plant response rating, Corn (corn (Zea mays); [20]): 25
Plant response rating (scale 0 to 100), Corn (corn (Zea mays); Preemergence, 125 g ai/ha): 40
Plant response rating, Corn (corn (Zea mays); [21]): 0
Plant response rating, Corn (corn (Zea mays); [22]): 0
Plant response rating, Corn (corn (Zea mays); [23]): 25
Galium plant response rating [4, 17]: 80
Galium plant response rating [4, 18]: 80
Plant response rating, Galium [4, 19]: 90
Plant response rating, Galium [4, 20]: 90
Plant response rating (scale 0 to 100), Galium ([4]; Preemergence, 125 g ai/ha): 90
Plant response rating, Galium [4, 21]: 90
Plant response rating, Galium [4, 22]: 90
Plant response rating, Galium [4, 23]: 98
Foxtail, Giant plant response rating [5, 17]: 5
Foxtail, Giant plant response rating [5, 18]: 5
Plant response rating, Foxtail, Giant [5, 19]: 10
Plant response rating, Foxtail, Giant [5, 20]: 10
Plant response rating (scale 0 to 100), Foxtail, Giant ([5]; Preemergence, 125 g ai/ha): 100
Plant response rating, Foxtail, Giant [5, 21]: 85
Plant response rating, Foxtail, Giant [5, 22]: 100
Plant response rating, Foxtail, Giant [5, 23]: 100
Johnsongrass plant response rating [6, 17]: 5
Johnsongrass plant response rating [6, 18]: 5
Plant response rating, Johnsongrass [6, 19]: 5
Plant response rating, Johnsongrass [6, 20]: 10
Plant response rating (scale 0 to 100), Johnsongrass ([6]; Preemergence, 125 g ai/ha): 100
Plant response rating, Johnsongrass [6, 21]: 10
Plant response rating, Johnsongrass [6, 22]: 70
Plant response rating, Johnsongrass [6, 23]: 90
Lambsquarters plant response rating [7, 17]: 70
Lambsquarters plant response rating [7, 18]: 85
Plant response rating, Lambsquarters [7, 19]: 95
Plant response rating, Lambsquarters [7, 20]: 90
Plant response rating (scale 0 to 100), Lambsquarters ([7]; Preemergence, 125 g ai/ha): 98
Plant response rating, Lambsquarters [7, 21]: 85
Plant response rating, Lambsquarters [7, 22]: 98
Plant response rating, Lambsquarters [7, 23]: 98
Crabgrass, Large plant response rating [8, 17]: 10
Crabgrass, Large plant response rating [8, 18]: 20
Plant response rating, Crabgrass, Large [8, 19]: 25
Plant response rating, Crabgrass, Large [8, 20]: 25
Plant response rating (scale 0 to 100), Crabgrass, Large ([8]; Preemergence, 125 g ai/ha): 100
Plant response rating, Crabgrass, Large [8, 21]: 98
Plant response rating, Crabgrass, Large [8, 22]: 100
Plant response rating, Crabgrass, Large [8, 23]: 100
Morningglory plant response rating [9, 17]: 85
Morningglory plant response rating [9, 18]: 75
Plant response rating, Morningglory [9, 19]: 85
Plant response rating, Morningglory [9, 20]: 80
Plant response rating (scale 0 to 100), Morningglory ([9]; Preemergence, 125 g ai/ha): 95
Plant response rating, Morningglory [9, 21]: 20
Plant response rating, Morningglory [9, 22]: 35
Plant response rating, Morningglory [9, 23]: 85
Oilseed Rape plant response rating [10, 17]: 80
Oilseed Rape plant response rating [10, 18]: 50
Plant response rating, Oilseed Rape [10, 19]: 90
Plant response rating, Oilseed Rape [10, 20]: 90
Plant response rating (scale 0 to 100), Oilseed Rape ([10]; Preemergence, 125 g ai/ha): 100
Plant response rating, Oilseed Rape [10, 21]: 98
Plant response rating, Oilseed Rape [10, 22]: 100
Plant response rating, Oilseed Rape [10, 23]: 100
Pigweed plant response rating [11, 17]: 90
Pigweed plant response rating [11, 18]: 90
Plant response rating, Pigweed [11, 19]: 95
Plant response rating, Pigweed [11, 20]: 100
Plant response rating (scale 0 to 100), Pigweed ([11]; Preemergence, 125 g ai/ha): 100
Plant response rating, Pigweed [11, 21]: 100
Plant response rating, Pigweed [11, 22]: 100
Plant response rating, Pigweed [11, 23]: 100
Ragweed plant response rating [12, 17]: 80
Ragweed plant response rating [12, 18]: 60
Plant response rating, Ragweed [12, 19]: 90
Plant response rating, Ragweed [12, 20]: 90
Plant response rating (scale 0 to 100), Ragweed ([12]; Preemergence, 125 g ai/ha): 90
Plant response rating, Ragweed [12, 21]: 40
Plant response rating, Ragweed [12, 22]: 55
Plant response rating, Ragweed [12, 23]: 85
Soybean plant response rating (soybean (Glycine max); [17]): 80
Soybean plant response rating (soybean (Glycine max); [18]): 55
Plant response rating, Soybean (soybean (Glycine max); [19]): 65
Plant response rating, Soybean (soybean (Glycine max); [20]): 75
Plant response rating (scale 0 to 100), Soybean (soybean (Glycine max); Preemergence, 125 g ai/ha): 80
Plant response rating, Soybean (soybean (Glycine max); [21]): 35
Plant response rating, Soybean (soybean (Glycine max); [22]): 40
Plant response rating, Soybean (soybean (Glycine max); [23]): 90
Velvetleaf plant response rating [13, 17]: 60
Velvetleaf plant response rating [13, 18]: 60
Plant response rating, Velvetleaf [13, 19]: 70
Plant response rating, Velvetleaf [13, 20]: 70
Plant response rating (scale 0 to 100), Velvetleaf ([13]; Preemergence, 125 g ai/ha): 100
Plant response rating, Velvetleaf [13, 21]: 70
Plant response rating, Velvetleaf [13, 22]: 85
Plant response rating, Velvetleaf [13, 23]: 100
Waterhemp plant response rating [14, 17]: 85
Waterhemp plant response rating [14, 18]: 80
Plant response rating, Waterhemp [14, 19]: 85
Plant response rating, Waterhemp [14, 20]: 90
Plant response rating (scale 0 to 100), Waterhemp ([14]; Preemergence, 125 g ai/ha): 100
Plant response rating, Waterhemp [14, 21]: 100
Plant response rating, Waterhemp [14, 22]: 100
Plant response rating, Waterhemp [14, 23]: 100
Wheat plant response rating [15, 17]: 0
Wheat plant response rating [15, 18]: 0
Plant response rating, Wheat [15, 19]: 5
Plant response rating, Wheat [15, 20]: 5
Plant response rating (scale 0 to 100), Wheat ([15]; Preemergence, 125 g ai/ha): 20
Plant response rating, Wheat [15, 21]: 0
Plant response rating, Wheat [15, 22]: 5
Plant response rating, Wheat [15, 23]: 10
Nutsedge, Yellow plant response rating [16, 17]: 5
Nutsedge, Yellow plant response rating [16, 18]: 5
Plant response rating, Nutsedge, Yellow [16, 19]: 5
Plant response rating, Nutsedge, Yellow [16, 20]: 15
Plant response rating (scale 0 to 100), Nutsedge, Yellow ([16]; Preemergence, 125 g ai/ha): 60
Plant response rating, Nutsedge, Yellow [16, 21]: 0
Plant response rating, Nutsedge, Yellow [16, 22]: 10
Plant response rating, Nutsedge, Yellow [16, 23]: 15
